{"source": "paper PMC3961306", "about": "“Comparison of the Cancer Gene Targeting and Biochemical Selectivities of All Targeted Kinase Inhibitors Approved for Clinical Use” (PLoS ONE, 2014)", "experiment_in_all_cases": "Kinase profiling in a biochemical assay panel (mobility shift assays and ELISA), %-inhibition at 1 μM; selectivity entropy", "key": {"[1]": {"target": "T1, panel of more than 300 wild-type and mutant kinases (313 kinase panel) (Homo sapiens, UniProt Q96KB5)", "T1 sequence (Q96KB5 1-322)": "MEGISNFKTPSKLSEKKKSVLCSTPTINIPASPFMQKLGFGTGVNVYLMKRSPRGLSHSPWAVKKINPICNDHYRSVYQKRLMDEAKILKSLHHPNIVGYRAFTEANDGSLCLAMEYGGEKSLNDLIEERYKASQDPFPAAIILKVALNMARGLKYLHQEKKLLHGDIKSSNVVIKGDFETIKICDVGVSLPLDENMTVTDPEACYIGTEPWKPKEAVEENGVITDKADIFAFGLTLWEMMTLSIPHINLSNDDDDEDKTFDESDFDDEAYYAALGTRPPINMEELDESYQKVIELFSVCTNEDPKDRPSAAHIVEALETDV"}, "[2]": {"target": "panel of more than 300 wild-type and mutant kinases (313 kinase panel) (Homo sapiens, UniProt Q16654)"}, "[3]": {"target": "T2, panel of more than 300 wild-type and mutant kinases (313 kinase panel) (Homo sapiens, UniProt Q96PF2)", "T2 sequence (Q96PF2 1-358)": "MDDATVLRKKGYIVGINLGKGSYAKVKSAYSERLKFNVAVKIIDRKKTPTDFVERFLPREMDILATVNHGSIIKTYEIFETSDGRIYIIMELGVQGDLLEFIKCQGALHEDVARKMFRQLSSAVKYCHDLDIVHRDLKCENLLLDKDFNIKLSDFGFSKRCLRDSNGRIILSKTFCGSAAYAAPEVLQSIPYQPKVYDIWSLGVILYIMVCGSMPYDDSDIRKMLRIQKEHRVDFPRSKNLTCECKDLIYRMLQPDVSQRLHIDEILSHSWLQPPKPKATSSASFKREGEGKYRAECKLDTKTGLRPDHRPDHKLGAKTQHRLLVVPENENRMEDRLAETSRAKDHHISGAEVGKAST"}, "[4]": {"target": "T3, panel of more than 300 wild-type and mutant kinases (313 kinase panel) (Homo sapiens, UniProt Q9BXA7)", "T3 sequence (Q9BXA7 1-367)": "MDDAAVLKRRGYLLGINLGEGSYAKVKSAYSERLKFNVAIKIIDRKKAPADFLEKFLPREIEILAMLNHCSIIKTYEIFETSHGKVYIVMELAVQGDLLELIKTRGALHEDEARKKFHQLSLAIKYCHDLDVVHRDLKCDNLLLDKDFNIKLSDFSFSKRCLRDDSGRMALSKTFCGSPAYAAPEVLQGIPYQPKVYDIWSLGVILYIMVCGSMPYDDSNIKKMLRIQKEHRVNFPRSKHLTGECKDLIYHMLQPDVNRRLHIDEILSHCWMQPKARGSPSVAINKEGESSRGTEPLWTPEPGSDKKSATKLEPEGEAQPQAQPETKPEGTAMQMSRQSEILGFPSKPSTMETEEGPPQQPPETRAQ"}, "[5]": {"target": "panel of more than 300 wild-type and mutant kinases (313 kinase panel) (Homo sapiens, UniProt O95819)"}, "[6]": {"target": "panel of more than 300 wild-type and mutant kinases (313 kinase panel) (Homo sapiens, UniProt P05771)"}, "[7]": {"target": "panel of more than 300 wild-type and mutant kinases (313 kinase panel) (Homo sapiens, UniProt P16591)", "sequence (P16591 whole entry, change not shown)": "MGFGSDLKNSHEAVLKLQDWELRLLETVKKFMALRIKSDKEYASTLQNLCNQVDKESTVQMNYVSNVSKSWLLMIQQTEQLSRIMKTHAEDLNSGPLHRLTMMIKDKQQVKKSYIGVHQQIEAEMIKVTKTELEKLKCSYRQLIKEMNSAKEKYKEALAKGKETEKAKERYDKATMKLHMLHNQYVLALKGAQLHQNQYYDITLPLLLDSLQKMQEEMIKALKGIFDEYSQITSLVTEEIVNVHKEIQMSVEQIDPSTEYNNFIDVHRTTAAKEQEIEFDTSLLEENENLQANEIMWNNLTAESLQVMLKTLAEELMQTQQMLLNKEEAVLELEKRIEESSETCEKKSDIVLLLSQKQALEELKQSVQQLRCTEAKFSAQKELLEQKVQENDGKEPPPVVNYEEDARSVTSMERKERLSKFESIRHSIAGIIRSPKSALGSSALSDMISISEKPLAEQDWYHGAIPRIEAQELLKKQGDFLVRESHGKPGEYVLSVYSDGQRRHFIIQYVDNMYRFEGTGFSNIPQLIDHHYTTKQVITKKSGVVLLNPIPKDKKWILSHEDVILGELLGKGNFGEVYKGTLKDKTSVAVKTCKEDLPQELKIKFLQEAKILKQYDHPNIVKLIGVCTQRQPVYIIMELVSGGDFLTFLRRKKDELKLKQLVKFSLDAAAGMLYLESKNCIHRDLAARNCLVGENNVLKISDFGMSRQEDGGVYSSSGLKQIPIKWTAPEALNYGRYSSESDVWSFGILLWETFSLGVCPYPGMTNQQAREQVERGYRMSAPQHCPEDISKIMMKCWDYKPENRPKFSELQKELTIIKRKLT"}, "[8]": {"target": "panel of more than 300 wild-type and mutant kinases (313 kinase panel) (Homo sapiens, UniProt Q16539)", "sequence (Q16539 whole entry, change not shown)": "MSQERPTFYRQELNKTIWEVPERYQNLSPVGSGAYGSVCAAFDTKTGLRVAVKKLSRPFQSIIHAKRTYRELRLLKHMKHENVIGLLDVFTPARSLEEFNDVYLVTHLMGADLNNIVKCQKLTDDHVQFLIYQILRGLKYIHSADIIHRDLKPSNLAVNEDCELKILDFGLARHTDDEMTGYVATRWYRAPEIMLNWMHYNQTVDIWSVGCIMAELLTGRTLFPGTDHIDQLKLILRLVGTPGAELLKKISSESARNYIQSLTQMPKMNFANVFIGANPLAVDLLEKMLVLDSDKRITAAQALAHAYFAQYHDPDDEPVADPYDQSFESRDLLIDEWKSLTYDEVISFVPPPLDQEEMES"}, "[9]": {"target": "panel of more than 300 wild-type and mutant kinases (313 kinase panel) (Homo sapiens, UniProt P30291)", "sequence (P30291 whole entry, change not shown)": "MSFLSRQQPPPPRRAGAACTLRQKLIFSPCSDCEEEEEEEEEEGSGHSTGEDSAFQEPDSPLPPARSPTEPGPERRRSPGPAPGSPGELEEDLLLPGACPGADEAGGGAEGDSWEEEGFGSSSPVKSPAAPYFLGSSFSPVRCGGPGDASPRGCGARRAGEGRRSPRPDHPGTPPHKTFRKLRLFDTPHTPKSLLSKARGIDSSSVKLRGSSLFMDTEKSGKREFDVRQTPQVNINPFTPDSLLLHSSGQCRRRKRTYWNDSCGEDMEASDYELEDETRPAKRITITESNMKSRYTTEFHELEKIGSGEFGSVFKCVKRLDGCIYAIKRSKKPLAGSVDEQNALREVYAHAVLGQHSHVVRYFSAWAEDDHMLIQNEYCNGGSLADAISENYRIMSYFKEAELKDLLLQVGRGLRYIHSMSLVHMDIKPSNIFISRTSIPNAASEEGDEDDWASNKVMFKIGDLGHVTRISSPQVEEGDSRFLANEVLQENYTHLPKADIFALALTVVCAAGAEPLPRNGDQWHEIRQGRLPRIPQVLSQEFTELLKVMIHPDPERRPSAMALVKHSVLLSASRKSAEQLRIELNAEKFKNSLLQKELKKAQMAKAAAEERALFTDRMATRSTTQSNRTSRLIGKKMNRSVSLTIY"}, "[10]": {"target": "panel of more than 300 wild-type and mutant kinases (313 kinase panel) (Homo sapiens, UniProt P04626)", "sequence (P04626 23-1255, change not shown)": "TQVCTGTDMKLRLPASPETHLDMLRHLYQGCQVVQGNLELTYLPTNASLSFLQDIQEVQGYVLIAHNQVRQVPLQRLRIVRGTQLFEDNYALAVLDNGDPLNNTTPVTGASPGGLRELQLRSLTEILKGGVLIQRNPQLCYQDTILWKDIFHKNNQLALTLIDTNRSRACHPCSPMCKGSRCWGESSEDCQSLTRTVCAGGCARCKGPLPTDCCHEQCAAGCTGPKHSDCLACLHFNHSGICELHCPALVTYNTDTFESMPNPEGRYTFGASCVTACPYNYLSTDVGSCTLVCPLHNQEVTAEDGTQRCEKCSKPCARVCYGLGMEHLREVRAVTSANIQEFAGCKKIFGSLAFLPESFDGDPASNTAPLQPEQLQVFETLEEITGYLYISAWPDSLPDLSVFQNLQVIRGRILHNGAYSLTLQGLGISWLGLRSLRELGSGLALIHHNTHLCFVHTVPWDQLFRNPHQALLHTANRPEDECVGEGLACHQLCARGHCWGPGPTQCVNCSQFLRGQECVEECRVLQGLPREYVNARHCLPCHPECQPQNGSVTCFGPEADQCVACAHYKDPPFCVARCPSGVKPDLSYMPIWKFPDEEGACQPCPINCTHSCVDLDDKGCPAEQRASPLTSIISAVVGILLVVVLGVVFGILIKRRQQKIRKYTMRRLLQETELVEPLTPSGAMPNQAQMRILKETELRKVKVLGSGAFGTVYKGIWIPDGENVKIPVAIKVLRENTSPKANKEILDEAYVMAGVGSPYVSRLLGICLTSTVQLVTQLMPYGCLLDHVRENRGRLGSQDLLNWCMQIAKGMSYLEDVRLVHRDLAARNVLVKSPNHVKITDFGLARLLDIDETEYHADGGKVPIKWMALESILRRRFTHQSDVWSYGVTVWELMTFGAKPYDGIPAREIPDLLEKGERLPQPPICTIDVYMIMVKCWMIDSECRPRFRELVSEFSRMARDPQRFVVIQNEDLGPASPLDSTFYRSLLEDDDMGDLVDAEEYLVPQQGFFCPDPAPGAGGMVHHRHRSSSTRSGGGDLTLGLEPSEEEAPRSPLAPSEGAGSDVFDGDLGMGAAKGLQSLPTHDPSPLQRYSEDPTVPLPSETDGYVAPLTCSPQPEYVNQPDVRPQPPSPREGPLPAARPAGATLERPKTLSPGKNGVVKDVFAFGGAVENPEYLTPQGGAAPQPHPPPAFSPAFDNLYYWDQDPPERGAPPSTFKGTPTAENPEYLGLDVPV", "settings": "kinase HER2; compound at 1 μM"}, "[11]": {"target": "panel of more than 300 wild-type and mutant kinases (313 kinase panel) (Homo sapiens, UniProt Q8IU85)"}, "[12]": {"target": "panel of more than 300 wild-type and mutant kinases (313 kinase panel) (Homo sapiens, UniProt Q86V86)"}, "[13]": {"target": "panel of more than 300 wild-type and mutant kinases (313 kinase panel) (Homo sapiens, UniProt Q13627)"}, "[14]": {"target": "panel of more than 300 wild-type and mutant kinases (313 kinase panel) (Homo sapiens, UniProt P45983)", "sequence (P45983 whole entry, change not shown)": "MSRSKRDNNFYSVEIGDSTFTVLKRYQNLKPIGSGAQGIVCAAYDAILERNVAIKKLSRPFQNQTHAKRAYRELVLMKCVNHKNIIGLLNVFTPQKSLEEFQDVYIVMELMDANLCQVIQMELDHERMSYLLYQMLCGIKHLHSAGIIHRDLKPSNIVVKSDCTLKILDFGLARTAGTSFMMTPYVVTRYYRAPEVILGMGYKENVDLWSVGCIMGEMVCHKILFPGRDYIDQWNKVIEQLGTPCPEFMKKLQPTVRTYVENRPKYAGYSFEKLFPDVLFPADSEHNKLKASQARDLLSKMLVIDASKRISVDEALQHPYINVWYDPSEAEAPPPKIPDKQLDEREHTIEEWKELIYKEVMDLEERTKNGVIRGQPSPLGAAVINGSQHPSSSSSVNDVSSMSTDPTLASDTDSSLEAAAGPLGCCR"}, "[15]": {"target": "panel of more than 300 wild-type and mutant kinases (313 kinase panel) (Homo sapiens, UniProt Q00535)", "sequence (Q00535 whole entry, change not shown)": "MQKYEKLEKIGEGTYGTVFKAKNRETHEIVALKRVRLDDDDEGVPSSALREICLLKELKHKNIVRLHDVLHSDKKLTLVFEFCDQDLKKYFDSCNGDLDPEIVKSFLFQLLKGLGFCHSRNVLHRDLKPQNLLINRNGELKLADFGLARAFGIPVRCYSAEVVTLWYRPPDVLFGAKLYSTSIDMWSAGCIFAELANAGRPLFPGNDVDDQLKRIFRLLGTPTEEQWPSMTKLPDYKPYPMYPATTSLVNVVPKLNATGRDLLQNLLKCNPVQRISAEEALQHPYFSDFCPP"}}, "note": "Read-outs that look alike come from different tables or passages of the source."}
{"smiles": "CN(C)C/C=C/C(=O)Nc1cc2c(Nc3ccc(F)c(Cl)c3)ncnc2cc1O[C@H]1CCOC1", "note": "[afatinib]", "values": [{"measurement": "%-inhibition of PBK", "setting": "[1]; kinase PBK, 1 μM", "value": -3, "unit": "%"}, {"measurement": "%-inhibition of PDHK4", "setting": "[2]; kinase PDHK4, 1 μM", "value": -3.28, "unit": "%"}, {"measurement": "%-inhibition of TSSK2", "setting": "[3]; kinase TSSK2, 1 μM", "value": 2, "unit": "%"}]}
{"smiles": "O=S(=O)(c1cccc2cnccc12)N1CCCNCC1", "note": "[fasudil]", "values": [{"measurement": "%-inhibition of TSSK1", "setting": "[4]; kinase TSSK1, 1 μM", "value": 26, "unit": "%"}, {"measurement": "%-inhibition of HGK", "setting": "[5]; kinase HGK, compound at 1 μM", "value": -1.82, "unit": "%"}, {"measurement": "%-inhibition of PKCβ1", "setting": "[6]; kinase PKCβ1, 1 μM", "value": 16, "unit": "%"}, {"measurement": "%-inhibition of FER", "setting": "[7]; kinase FER, compound at 1 μM", "value": -3, "unit": "%"}, {"measurement": "%-inhibition of p38α", "setting": "[8]; kinase p38α, 1 μM", "value": -7, "unit": "%"}, {"measurement": "%-inhibition of WEE1", "setting": "[9]; kinase WEE1, compound at 1 μM", "value": -0.258, "unit": "%"}, {"measurement": "%-inhibition of HER2", "setting": "[10]", "value": 0.678, "unit": "%"}, {"measurement": "%-inhibition of PBK", "setting": "[1]; kinase PBK, 1 μM", "value": -2.33, "unit": "%"}, {"measurement": "%-inhibition, CaMK1δ", "setting": "[11]; kinase CaMK1δ, 1 μM compound", "value": -4, "unit": "%"}, {"measurement": "%-inhibition of PIM3", "setting": "[12]; kinase PIM3, 1 μM", "value": 3.45, "unit": "%"}, {"measurement": "%-inhibition of PDHK4", "setting": "[2]; kinase PDHK4, 1 μM", "value": 4.74, "unit": "%"}, {"measurement": "%-inhibition of TSSK2", "setting": "[3]; kinase TSSK2, 1 μM", "value": -0.28, "unit": "%"}, {"measurement": "%-inhibition of DYRK1A", "setting": "[13]; kinase DYRK1A, compound at 1 μM", "value": 4.23, "unit": "%"}, {"measurement": "%-inhibition of JNK1", "setting": "[14]; kinase JNK1, compound at 1 μM", "value": -5.43, "unit": "%"}]}
{"smiles": "C#Cc1cccc(Nc2ncnc3cc(OCCOC)c(OCCOC)cc23)c1", "note": "[erlotinib]", "values": [{"measurement": "%-inhibition of TSSK1", "setting": "[4]; 1 µM", "value": 3.5, "unit": "%"}, {"measurement": "%-inhibition of HGK", "setting": "[5]; 1 µM", "value": 50, "unit": "%"}, {"measurement": "%-inhibition of PKCβ1", "setting": "[6]; 1 µM", "value": 6, "unit": "%"}, {"measurement": "%-inhibition of FER", "setting": "[7]; 1 µM", "value": 4.42, "unit": "%"}, {"measurement": "%-inhibition of p38α", "setting": "[8]; 1 µM", "value": -0.474, "unit": "%"}, {"measurement": "%-inhibition of WEE1", "setting": "[9]; 1 µM", "value": 20, "unit": "%"}, {"measurement": "%-inhibition of PBK", "setting": "[1]; 1 µM", "value": 4.3, "unit": "%"}, {"measurement": "%-inhibition, CaMK1δ", "setting": "[11]; 1 µM", "value": -3.68, "unit": "%"}, {"measurement": "%-inhibition of PIM3", "setting": "[12]; 1 µM", "value": 0.333, "unit": "%"}, {"measurement": "%-inhibition of PDHK4", "setting": "[2]; 1 µM", "value": -9, "unit": "%"}, {"measurement": "%-inhibition of TSSK2", "setting": "[3]; 1 µM", "value": 2, "unit": "%"}, {"measurement": "%-inhibition of DYRK1A", "setting": "[13]", "value": 20, "unit": "%"}, {"measurement": "%-inhibition of JNK1", "setting": "[14]; 1 µM", "value": 1.68, "unit": "%"}, {"measurement": "%-inhibition, CDK5/p25", "setting": "[15]; 1 µM", "value": 8, "unit": "%"}]}
{"smiles": "COc1cc(Nc2c(C#N)cnc3cc(OCCCN4CCN(C)CC4)c(OC)cc23)c(Cl)cc1Cl", "note": "[bosutinib]", "values": [{"measurement": "%-inhibition of TSSK1", "setting": "[4]; kinase TSSK1, 1 μM", "value": 29, "unit": "%"}, {"measurement": "%-inhibition of HGK", "setting": "[5]; kinase HGK, compound at 1 μM", "value": 100, "unit": "%"}, {"measurement": "%-inhibition of PKCβ1", "setting": "[6]; kinase PKCβ1, 1 μM", "value": 3.68, "unit": "%"}, {"measurement": "%-inhibition of FER", "setting": "[7]; kinase FER, compound at 1 μM", "value": 89, "unit": "%"}, {"measurement": "%-inhibition of p38α", "setting": "[8]; kinase p38α, 1 μM", "value": 9, "unit": "%"}, {"measurement": "%-inhibition of WEE1", "setting": "[9]; kinase WEE1, compound at 1 μM", "value": 98, "unit": "%"}, {"measurement": "%-inhibition of HER2", "setting": "[10]", "value": 88, "unit": "%"}, {"measurement": "%-inhibition of PBK", "setting": "[1]; kinase PBK, 1 μM", "value": -24, "unit": "%"}, {"measurement": "%-inhibition of TSSK2", "setting": "[3]; kinase TSSK2, 1 μM", "value": -9, "unit": "%"}, {"measurement": "%-inhibition, CDK5/p25", "setting": "[15]; kinase CDK5/p25, 1 μM compound", "value": -25, "unit": "%"}]}
{"smiles": "CCN(CC)CCNC(=O)c1c(C)[nH]c(/C=C2\\C(=O)Nc3ccc(F)cc32)c1C", "note": "[sunitinib]", "values": [{"measurement": "%-inhibition of TSSK1", "setting": "[4]; kinase TSSK1, 1 μM", "value": 85, "unit": "%"}, {"measurement": "%-inhibition of HGK", "setting": "[5]; kinase HGK, compound at 1 μM", "value": 96, "unit": "%"}, {"measurement": "%-inhibition of PIM3", "setting": "[12]; kinase PIM3, 1 μM", "value": 21, "unit": "%"}]}
{"smiles": "Cc1ccc(C(=O)Nc2ccc(CN3CCN(C)CC3)c(C(F)(F)F)c2)cc1C#Cc1cnc2cccnn12", "note": "[ponatinib]", "values": [{"measurement": "%-inhibition of TSSK1", "setting": "[4]; kinase TSSK1, 1 μM", "value": -4, "unit": "%"}, {"measurement": "%-inhibition of HGK", "setting": "[5]; kinase HGK, compound at 1 μM", "value": 92, "unit": "%"}, {"measurement": "%-inhibition of PKCβ1", "setting": "[6]; kinase PKCβ1, 1 μM", "value": -5.61, "unit": "%"}, {"measurement": "%-inhibition of FER", "setting": "[7]; kinase FER, compound at 1 μM", "value": 89, "unit": "%"}, {"measurement": "%-inhibition of p38α", "setting": "[8]; kinase p38α, 1 μM", "value": 101, "unit": "%"}, {"measurement": "%-inhibition of WEE1", "setting": "[9]; kinase WEE1, compound at 1 μM", "value": 2.14, "unit": "%"}, {"measurement": "%-inhibition of HER2", "setting": "[10]", "value": 88, "unit": "%"}, {"measurement": "%-inhibition of PBK", "setting": "[1]; kinase PBK, 1 μM", "value": -14, "unit": "%"}, {"measurement": "%-inhibition of PDHK4", "setting": "[2]; kinase PDHK4, 1 μM", "value": -1.4, "unit": "%"}, {"measurement": "%-inhibition of TSSK2", "setting": "[3]; kinase TSSK2, 1 μM", "value": -8, "unit": "%"}, {"measurement": "%-inhibition, CDK5/p25", "setting": "[15]; kinase CDK5/p25, 1 μM compound", "value": -20, "unit": "%"}]}
